{"source": "patent US12385013B2", "about": "“Differentiation of pancreatic endocrine cells” (Vertex Pharmaceuticals Incorporated, priority 2020, dated 2025)", "key": {"EZH2": {"molecular_target": "EZH2 (Homo sapiens, UniProt Q15910)", "sequence (Q15910 whole entry, species assumed)": "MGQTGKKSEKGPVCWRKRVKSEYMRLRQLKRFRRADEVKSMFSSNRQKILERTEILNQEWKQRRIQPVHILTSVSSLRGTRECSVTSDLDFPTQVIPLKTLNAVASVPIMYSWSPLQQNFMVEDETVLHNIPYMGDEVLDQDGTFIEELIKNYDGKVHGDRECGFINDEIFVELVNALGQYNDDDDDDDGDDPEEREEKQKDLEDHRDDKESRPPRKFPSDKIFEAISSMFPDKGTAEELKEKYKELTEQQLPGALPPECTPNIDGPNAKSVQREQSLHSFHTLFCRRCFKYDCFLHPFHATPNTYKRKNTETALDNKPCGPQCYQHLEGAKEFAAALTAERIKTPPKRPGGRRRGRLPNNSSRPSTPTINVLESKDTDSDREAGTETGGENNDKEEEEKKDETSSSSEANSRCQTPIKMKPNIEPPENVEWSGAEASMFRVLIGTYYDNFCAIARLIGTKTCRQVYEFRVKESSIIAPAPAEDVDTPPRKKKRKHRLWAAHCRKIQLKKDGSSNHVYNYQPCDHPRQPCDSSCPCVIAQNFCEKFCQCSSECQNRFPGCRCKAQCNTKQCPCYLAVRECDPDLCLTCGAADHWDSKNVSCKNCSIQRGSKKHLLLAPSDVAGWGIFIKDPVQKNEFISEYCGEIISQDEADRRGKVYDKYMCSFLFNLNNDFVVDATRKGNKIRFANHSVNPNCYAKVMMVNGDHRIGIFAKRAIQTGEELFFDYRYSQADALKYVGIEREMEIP", "sequence (O75530 whole entry partner, species assumed)": "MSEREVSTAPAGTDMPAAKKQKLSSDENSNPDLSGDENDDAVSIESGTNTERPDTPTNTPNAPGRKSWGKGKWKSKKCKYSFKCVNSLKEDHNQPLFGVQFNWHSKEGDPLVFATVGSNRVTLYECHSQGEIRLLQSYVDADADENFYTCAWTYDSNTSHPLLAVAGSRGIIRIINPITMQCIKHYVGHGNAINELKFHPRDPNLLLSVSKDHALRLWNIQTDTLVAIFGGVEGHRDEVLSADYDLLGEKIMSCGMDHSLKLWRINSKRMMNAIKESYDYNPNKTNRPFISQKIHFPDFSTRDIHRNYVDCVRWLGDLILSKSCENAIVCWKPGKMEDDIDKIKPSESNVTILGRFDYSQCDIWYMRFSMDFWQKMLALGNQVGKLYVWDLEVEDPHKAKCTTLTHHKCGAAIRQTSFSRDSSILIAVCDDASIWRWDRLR", "sequence (Q15022 whole entry partner, species assumed)": "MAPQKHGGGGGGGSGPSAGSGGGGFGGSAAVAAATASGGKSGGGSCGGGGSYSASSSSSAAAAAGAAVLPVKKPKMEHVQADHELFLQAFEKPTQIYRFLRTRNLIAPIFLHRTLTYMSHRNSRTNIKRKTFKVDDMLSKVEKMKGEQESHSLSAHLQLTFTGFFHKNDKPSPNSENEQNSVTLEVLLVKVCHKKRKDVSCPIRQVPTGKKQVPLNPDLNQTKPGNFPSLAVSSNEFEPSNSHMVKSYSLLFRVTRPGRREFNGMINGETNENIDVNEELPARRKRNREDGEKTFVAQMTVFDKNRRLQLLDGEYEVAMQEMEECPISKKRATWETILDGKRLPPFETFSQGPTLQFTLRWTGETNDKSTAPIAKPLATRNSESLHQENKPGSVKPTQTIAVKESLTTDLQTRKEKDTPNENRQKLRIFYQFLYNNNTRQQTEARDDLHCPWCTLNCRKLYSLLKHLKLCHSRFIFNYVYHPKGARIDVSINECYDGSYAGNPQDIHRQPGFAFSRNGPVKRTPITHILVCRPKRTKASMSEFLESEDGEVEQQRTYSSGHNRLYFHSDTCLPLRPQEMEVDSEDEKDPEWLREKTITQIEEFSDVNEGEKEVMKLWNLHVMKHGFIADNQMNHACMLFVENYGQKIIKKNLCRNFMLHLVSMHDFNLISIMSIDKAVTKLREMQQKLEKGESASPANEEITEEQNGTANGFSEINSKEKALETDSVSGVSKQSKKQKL", "settings": "cited from earlier work"}, "[1]": {"system": "S5c cells differentiated from human stem cells", "assay": "Flow cytometry of NKX6.1/ISL1 at S5c", "type": "cell-based", "settings": "for effect on alpha cells (ISL1-positive/NKX6.1-negative) / effect on sc-EC cells (NKX6.1-positive/ISL-negative): PDBU 0.5 μM or TPPB 0.1 μM on S4d5, S5d1, S5d2", "protocol": "In one experiment, effect of application of PDBU and gamma secretase inhibitor, XXI, was tested. In this experiment, three differentiation conditions were examined and compared: Version A protocol; Version B; Version B+XXI (both PDBU and XXI was applied from S4d5 to S5d2, and XXI continued to be applied throughout S5). FIG. 10B summarizes the percentages of ISL1-positive cells and ISL1-negative cells at S5c generated via different protocols, as measured by flow cytometry (exemplified in FIG. 10A). As shown in the figure, combined PKC activation and gamma secretase inhibition starting during S4 led to robust induction of ISL1-positive cells from about 65% to higher than 90%, whereas PKC activation alone led to about 80% ISL1-positive cells.\n(§1) In another experiment, the effect of two different PKC activators on enterochromaffin cells and alpha cells was examined. In this experiment, three differentiation conditions were examined and compared: Version A protocol; Version A with PDBU applied at 0.5 μM on days S4d5, S5d1, and S5d2 (VA+PDBU); and Version A with ((2S,5S)-(E,E)-8-(5-(4-(Trifluoromethyl)phenyl)-2,4-pentadienoylamino)benzolactam) at 0.1 μM on days S4d5, S5d1, and S5d2 (VA+TPPB). FIG. 11B summarizes the percentages of NKX6.1-positive/ISL-negative cells and ISL1-positive/NKX6.1-negative cells at S5c generated via the different protocols, as measured by flow cytometry (exemplified in FIG. 11A)."}, "[2]": {"system": "cells differentiated from human stem cells", "assay": "Yield of total cells", "type": "cell-based", "protocol": "as §1"}, "[3]": {"system": "S5c cells differentiated from human stem cells", "assay": "Single-cell RNA sequencing of S5c cells after stem cell differentiation", "type": "cell-based", "settings": "compared to Version A protocol, PDBU S4d5 to S5d2", "protocol": "(§2) Both Version A and Version B protocols are 6-stage stepwise protocols that share similar reagents and treatment timing. With Version A protocols, stem cells were treated with reagents in the following consecutive orders during the first five stages: Stage 1 (S1), Activin-A for 3 days and also CHIR99021 for the first 24 hr; Stage 2 (S2), KGF for 3 days; Stage 3 (S3), KGF, PDBU, Sant-1, retinoic acid (RA), Activin A, and Thiazovivin for 2 days, and also DMH-1 for the first day; Stage 4 (S4), KGF, Sant-1, Thiazovivin, Activin A, and RA for 6 days; Stage 5 (S5), XXI, Alk5i, GC-1, LDN-193189, Thiazovivin, Staurosporine, and DZNEP for 7 days, and also RA, Sant-1, and Betacellulin for the first 2 days. In Version B protocols, one difference from Version A protocols is that the cells were supplemented with PDBU from day 5 of Stage 4 (S4d5) to day 2 of Stage 5 (S5d2). In one experiment, 500 nM of PDBU was used to treat the cells during S4d5 to S5d2."}, "[4]": {"system": "Stage 6 cells differentiated from human stem cells", "assay": "Flow cytometry of Stage 6 endocrine cell populations (C-peptide/VMAT1, GCG/SST)", "type": "cell-based", "protocol": "as §2\nIn one experiment, four different exemplary Stage 6 treatment paradigms were also tested at S6 in combination with the first five stages of Version A or Version B protocols. Briefly, i) with S6-a paradigm, S5c cells were cultured in DMEM/F12 medium containing 1% HSA for 7-14 days; ii) with S6-b paradigm, S5c cells were cultured in MCDB131 medium containing 0.05% HSA and the following supplements (per 1 L MCDB131): 0.44 g Glucose, 1.23 g NaHCO3, 0.044 g Vitamin C, 10 ml Glutamax, and 5 ml ITS-x; iii) with S6-c paradigm, S5c cells were cultured in MCDB131 medium containing 0.05% HSA and vitamin C for 7-14 days, during which the cells were treated with 10 μM Alk5i, 1 μM GC-1, 100 nM LDN-193189, 2.5 μM Thiazovivin, 3 nM SSP, and 100 nM DZNEP for the first four days; iv) with S6-d paradigm, S5c cells were cultured in MCDB131 medium (no glutamine base media) containing 0.05% HSA, ITS-X, vitamin C, and 4 mM Gln, as well as […] Alk5i, 1 μM GC-1, 100 nM LDN-193189, 2.5 μM Thiazovivin, 3 nM SSP, and 100 nM DZNEP, for four days, followed by culturing in MCDB131 medium (no glutamine base media) containing 0.05% HSA, ITS-X, vitamin C, and 4 mM Gln with no additional factors for additional 3-10 days.\nAs shown in the figure, with Version A protocols, the percentage of C-peptide-positive, VMAT1-negative cells on S6d9 or S6d14 were all around 35%, except for VA/S6-a and VA/S6-d on S6d9 (both around 40%), whereas with Version B protocols, the percentage of C-peptide-positive, VMAT1-negative cells was from 45% to 55% on S6d9, and around 45% on S6d14."}, "[5]": {"system": "S5c cells differentiated from human stem cells", "assay": "SOX9 expression at the end of S5", "type": "cell-based", "settings": "compared to Version A protocols"}, "S6d13 cells": {"system": "S6d13 cells", "assay": "In vitro glucose-stimulated insulin secretion response", "type": "cell-based, human", "source_text": "In one experiment, in vitro glucose-stimulated insulin secretion response of S6d13 cells generated by Version A and Version B protocols was examined."}, "[6]": {"system": "Stage 6 cells differentiated from human stem cells", "assay": "Insulin content of generated cells", "type": "cell-based", "settings": "comparison between protocols"}}, "data": [{"smiles": "CC[C@H](C)n1cc(C)c2c(C(=O)NCc3c(C)cc(C)[nH]c3=O)cc(-c3ccc(N4CCNCC4)nc3)cc21", "note": "[GSK126]", "values": [{"measurement": "selectivity for EZH2 over EZH1", "setting": "EZH2", "result": 150, "unit": "fold"}]}, {"smiles": "CCCc1cc(C)[nH]c(=O)c1CNC(=O)c1cc(-c2ccc(N3CCN(C(C)C)CC3)nc2)cc2c1cnn2C(C)C", "note": "[UNC1999]", "values": [{"measurement": "selectivity relative to GSK126", "setting": "EZH2", "result": "less selective"}]}, {"smiles": "CC(C)[C@H]1C(=O)N[C@H](CO)Cc2cc(NC(=O)/C=C/C=C/c3ccc(C(F)(F)F)cc3)ccc2N1C", "note": "[VA/TPPB, ((2S,5S)-(E,E)-8-(5-(4-(Trifluoromethyl)phenyl)-2,4-pentadienoylamino)benzolactam)]", "values": [{"measurement": "effect on alpha cells (ISL1-positive/NKX6.1-negative)", "setting": "[1]", "result": "increasing alpha cells"}, {"measurement": "effect on sc-EC cells (NKX6.1-positive/ISL-negative)", "setting": "[1]", "result": "similarly effective as VA/PDBU at reducing sc-EC cells"}, {"measurement": "increase in yield of total cells as compared to VA/PDBU", "setting": "[2]; TPPB 0.1 μM on S4d5, S5d1, S5d2", "result": "more than 2 fold"}]}, {"smiles": "CCCC(=O)O[C@@H]1[C@@H](C)[C@@]2(O)[C@@H](C=C(CO)C[C@]3(O)C(=O)C(C)=C[C@@H]23)[C@@H]2C(C)(C)[C@]12OC(=O)CCC", "note": "[Version B, phorbol 12,13-dibutyrate]", "values": [{"measurement": "percentage of cells expressing CHGA", "setting": "[3]", "result": "comparable percentage"}, {"measurement": "percentage of cells expressing DDC (marker of enterochromaffin cells)", "setting": "[3]", "result": "much reduced percentage"}, {"measurement": "percentage of cells expressing ISL1", "setting": "[3]", "result": "comparable percentage"}, {"measurement": "percentage of EC cells (VMAT1+/C-peptide−)", "setting": "[4]; S6d9", "result": "less than 20%"}, {"measurement": "percentage of δ cells (SST+/GCG−)", "setting": "[4]; S6d9, listed as vB/S6-a", "result": "around 5%"}, {"measurement": "percentage of δ cells (SST+/GCG−)", "setting": "[4]; S6d9, listed as vB/S6-b", "result": "around 7%"}, {"measurement": "percentage of δ cells (SST+/GCG−)", "setting": "[4]; S6d9, listed as vB/S6-d", "result": "around 8%"}, {"measurement": "percentage of C-peptide-positive, VMAT1-negative cells", "setting": "[4]; S6d14", "result": "around 45%"}, {"measurement": "percentage of EC cells (VMAT1+/C-peptide−)", "setting": "[4]; S6d14", "result": "less than 20%"}, {"measurement": "percentage of α cells (GCG+/SST−)", "setting": "[4]; S6d14, listed as vB/S6-a", "result": "around 22%"}, {"measurement": "percentage of δ cells (SST+/GCG−)", "setting": "[4]; S6d14, listed as vB/S6-a", "result": "around 5%"}, {"measurement": "percentage of α cells (GCG+/SST−)", "setting": "[4]; S6d14, listed as vB/S6-b", "result": "around 22%"}, {"measurement": "percentage of δ cells (SST+/GCG−)", "setting": "[4]; S6d14, listed as vB/S6-b", "result": "around 5%"}, {"measurement": "percentage of α cells (GCG+/SST−)", "setting": "[4]; S6d14, listed as vB/S6-c", "result": "around 15%"}, {"measurement": "percentage of α cells (GCG+/SST−)", "setting": "[4]; S6d14, listed as vB/S6-d", "result": "around 15%"}, {"measurement": "percentage of δ cells (SST+/GCG−)", "setting": "[4]; S6d14, listed as vB/S6-d", "result": "around 8%"}, {"measurement": "cells expressing SOX9", "setting": "[5]", "result": "increased cells expressing SOX9"}, {"measurement": "insulin secretion in response to 20 mM glucose challenge as compared to 2.8 mM glucose challenge", "setting": "S6d13 cells", "result": "no clear increase in insulin secretion"}, {"measurement": "responsiveness to glucose challenges (GSIS)", "setting": "S6d13 cells", "result": "relatively low responsiveness to glucose challenges"}, {"measurement": "insulin content in cells", "setting": "[6]", "result": "comparable"}, {"measurement": "effect on alpha cells (ISL1-positive/NKX6.1-negative)", "setting": "[1]", "result": "increasing alpha cells"}, {"measurement": "effect on sc-EC cells (NKX6.1-positive/ISL-negative)", "setting": "[1]", "result": "reducing sc-EC cells"}, {"measurement": "percentage of ISL1-positive cells", "setting": "[1]; Version A about 65%", "result": "about 80%"}]}, {"smiles": "C[C@H](NC(=O)Cc1cc(F)cc(F)c1)C(=O)N[C@H]1N=C(c2ccccc2)c2ccccc2N(C)C1=O", "note": "[XXI]", "values": [{"measurement": "cell yield", "setting": "[2]; XXI added to VA/TPPB at days S4d5, S5d1, S5d2", "result": "reduction in in cell yield"}]}]}
